Article PMC6886798, “Expression of myeloid Src-family kinases is associated with poor prognosis in AML and influences Flt3-ITD kinase inhibitor acquired resistance” (PLoS ONE, 2019)

Legend:
Experiment in all cases: KINOMEscan
Assay type in all cases: binding
Settings in all cases: 1.0 µM
[1] = target: T1, CSK (Homo sapiens, UniProt P41240)
T1 construct: purchased Eurofins/DiscoverX KINOMEscan scanMAX
Method: (§1) Kinase retention to the immobilized ligand is then measured using quantitative real-time PCR for each kinase-specific DNA barcode.

[2] = target: T2, MARK4 (Homo sapiens, UniProt Q96L34)
T2 construct: purchased Eurofins/DiscoverX KINOMEscan scanMAX
T2 sequence (Q96L34 whole entry): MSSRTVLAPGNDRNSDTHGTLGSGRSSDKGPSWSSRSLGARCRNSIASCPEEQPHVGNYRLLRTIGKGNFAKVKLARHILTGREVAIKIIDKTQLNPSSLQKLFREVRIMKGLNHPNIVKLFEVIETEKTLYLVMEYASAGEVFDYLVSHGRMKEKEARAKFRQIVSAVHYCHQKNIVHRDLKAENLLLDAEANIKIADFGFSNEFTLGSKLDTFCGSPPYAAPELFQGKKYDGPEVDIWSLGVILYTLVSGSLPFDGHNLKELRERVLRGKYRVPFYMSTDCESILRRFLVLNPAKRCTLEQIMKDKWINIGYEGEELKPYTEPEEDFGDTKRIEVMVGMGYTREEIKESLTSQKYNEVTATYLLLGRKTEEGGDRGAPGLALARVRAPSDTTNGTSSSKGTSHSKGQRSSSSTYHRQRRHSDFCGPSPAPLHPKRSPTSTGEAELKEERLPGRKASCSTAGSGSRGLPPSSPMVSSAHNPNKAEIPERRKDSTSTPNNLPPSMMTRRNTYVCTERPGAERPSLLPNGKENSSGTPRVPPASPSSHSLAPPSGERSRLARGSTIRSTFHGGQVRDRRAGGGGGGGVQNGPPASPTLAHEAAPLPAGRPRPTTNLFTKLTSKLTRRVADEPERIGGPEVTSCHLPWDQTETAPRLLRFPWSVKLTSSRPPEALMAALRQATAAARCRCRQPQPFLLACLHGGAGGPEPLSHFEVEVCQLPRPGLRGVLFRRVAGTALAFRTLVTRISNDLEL
Method: as §1

[3] = target: T3, GAK (Homo sapiens, UniProt O14976)
T3 construct: purchased Eurofins/DiscoverX KINOMEscan scanMAX
Method: as §1

[4] = target: T4, VPS34 (Homo sapiens, UniProt Q8NEB9)
T4 construct: DNA tag (qPCR barcode); purchased Eurofins/DiscoverX KINOMEscan scanMAX
Method: as §1

[5] = target: T5, RPS6KA5(Kin.Dom.1-N-terminal) (Homo sapiens, UniProt O75582)
T5 construct: RPS6KA5(Kin.Dom.1-N-terminal); purchased Eurofins/DiscoverX KINOMEscan scanMAX
T5 sequence (O75582 49-387 limits assumed): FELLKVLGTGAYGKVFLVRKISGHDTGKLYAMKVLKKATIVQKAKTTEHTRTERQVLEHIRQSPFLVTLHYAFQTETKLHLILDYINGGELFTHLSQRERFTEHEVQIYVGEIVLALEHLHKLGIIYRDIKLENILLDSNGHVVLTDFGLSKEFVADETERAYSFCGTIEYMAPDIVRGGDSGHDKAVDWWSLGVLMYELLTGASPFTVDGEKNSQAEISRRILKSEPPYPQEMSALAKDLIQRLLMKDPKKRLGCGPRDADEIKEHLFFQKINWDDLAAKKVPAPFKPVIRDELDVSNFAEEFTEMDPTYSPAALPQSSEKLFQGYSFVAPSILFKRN
Method: as §1

[6] = target: T6, RIPK4 (Homo sapiens, UniProt P57078)
T6 construct: purchased Eurofins/DiscoverX KINOMEscan scanMAX
T6 sequence (P57078 whole entry): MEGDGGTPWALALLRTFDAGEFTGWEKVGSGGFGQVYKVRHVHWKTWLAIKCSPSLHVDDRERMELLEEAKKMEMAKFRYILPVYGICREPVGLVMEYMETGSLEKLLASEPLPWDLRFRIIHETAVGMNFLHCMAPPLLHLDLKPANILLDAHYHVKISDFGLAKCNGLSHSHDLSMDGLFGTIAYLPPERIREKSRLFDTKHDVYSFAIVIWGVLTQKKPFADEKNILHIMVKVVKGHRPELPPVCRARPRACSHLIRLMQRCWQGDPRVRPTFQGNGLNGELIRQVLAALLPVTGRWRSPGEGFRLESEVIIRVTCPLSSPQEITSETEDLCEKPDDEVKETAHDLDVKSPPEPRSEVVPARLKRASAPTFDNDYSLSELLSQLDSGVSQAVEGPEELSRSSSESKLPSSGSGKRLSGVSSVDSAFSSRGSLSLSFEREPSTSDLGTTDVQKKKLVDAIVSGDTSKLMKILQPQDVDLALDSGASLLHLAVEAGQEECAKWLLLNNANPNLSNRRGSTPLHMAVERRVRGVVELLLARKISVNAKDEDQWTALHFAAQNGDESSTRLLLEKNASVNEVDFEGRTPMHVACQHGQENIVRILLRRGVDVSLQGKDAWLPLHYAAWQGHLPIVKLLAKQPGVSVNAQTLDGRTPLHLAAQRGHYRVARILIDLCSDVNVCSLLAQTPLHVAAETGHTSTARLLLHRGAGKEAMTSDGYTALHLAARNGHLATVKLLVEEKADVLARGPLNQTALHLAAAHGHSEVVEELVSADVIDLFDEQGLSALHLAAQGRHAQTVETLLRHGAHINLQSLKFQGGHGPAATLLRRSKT
Method: as §1

[7] = target: T7, CDK5 (Homo sapiens, UniProt Q00535)
T7 construct: purchased Eurofins/DiscoverX KINOMEscan scanMAX
Method: as §1

[8] = target: T8, NEK7 (Homo sapiens, UniProt Q8TDX7)
T8 construct: purchased Eurofins/DiscoverX KINOMEscan scanMAX
Method: as §1

[9] = target: T9, MRCKB (Homo sapiens, UniProt Q9Y5S2)
T9 construct: purchased Eurofins/DiscoverX KINOMEscan scanMAX
Method: as §1

[10] = target: T10, MYLK4 (Homo sapiens, UniProt Q86YV6)
T10 construct: purchased Eurofins/DiscoverX KINOMEscan scanMAX
Method: as §1

[11] = target: T11, MST3 (Homo sapiens, UniProt Q9Y6E0)
T11 construct: purchased Eurofins/DiscoverX KINOMEscan scanMAX
Method: as §1

[12] = target: T12, RSK2(Kin.Dom.1-N-terminal) (Homo sapiens, UniProt P51812)
T12 construct: RSK2(Kin.Dom.1-N-terminal); purchased Eurofins/DiscoverX KINOMEscan scanMAX
Method: as §1

[13] = target: T13, CSNK1E (Homo sapiens, UniProt P49674)
T13 construct: purchased Eurofins/DiscoverX KINOMEscan scanMAX
Method: as §1

[14] = target: T14, FLT3(D835H) (Homo sapiens, UniProt P36888, D835H)
T14 construct: purchased Eurofins/DiscoverX KINOMEscan scanMAX
Method: as §1

[15] = target: T15, TAOK3 (Homo sapiens, UniProt Q9H2K8)
T15 construct: purchased Eurofins/DiscoverX KINOMEscan scanMAX
T15 sequence (Q9H2K8 whole entry): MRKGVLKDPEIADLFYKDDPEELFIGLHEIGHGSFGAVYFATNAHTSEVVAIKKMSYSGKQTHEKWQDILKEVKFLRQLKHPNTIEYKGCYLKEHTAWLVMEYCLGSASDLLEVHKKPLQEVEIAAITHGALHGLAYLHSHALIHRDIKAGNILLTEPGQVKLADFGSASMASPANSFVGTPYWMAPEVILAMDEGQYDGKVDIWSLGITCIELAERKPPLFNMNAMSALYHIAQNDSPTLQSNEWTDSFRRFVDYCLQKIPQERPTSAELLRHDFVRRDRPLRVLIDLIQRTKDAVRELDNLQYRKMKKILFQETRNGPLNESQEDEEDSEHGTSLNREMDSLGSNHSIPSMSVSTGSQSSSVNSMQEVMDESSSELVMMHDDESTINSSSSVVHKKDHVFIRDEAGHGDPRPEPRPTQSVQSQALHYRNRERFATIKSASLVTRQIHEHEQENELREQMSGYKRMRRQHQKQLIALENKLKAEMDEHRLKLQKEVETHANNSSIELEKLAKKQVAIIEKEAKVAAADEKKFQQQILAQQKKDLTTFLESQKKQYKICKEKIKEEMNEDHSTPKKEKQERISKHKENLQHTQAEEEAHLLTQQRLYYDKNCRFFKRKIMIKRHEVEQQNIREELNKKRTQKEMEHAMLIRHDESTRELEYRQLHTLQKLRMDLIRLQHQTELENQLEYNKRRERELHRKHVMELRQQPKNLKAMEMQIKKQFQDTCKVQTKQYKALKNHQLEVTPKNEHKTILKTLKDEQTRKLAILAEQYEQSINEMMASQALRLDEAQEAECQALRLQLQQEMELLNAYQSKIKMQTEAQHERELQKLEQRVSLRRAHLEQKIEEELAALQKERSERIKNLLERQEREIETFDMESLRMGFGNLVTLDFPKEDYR
Method: as §1

[16] = target: T16, HUNK (Homo sapiens, UniProt P57058)
T16 construct: purchased Eurofins/DiscoverX KINOMEscan scanMAX
Method: as §1

[17] = target: T17, CDK8 (Homo sapiens, UniProt P49336)
T17 construct: purchased Eurofins/DiscoverX KINOMEscan scanMAX
Method: as §1

[18] = target: T18, CSNK1D (Homo sapiens, UniProt P48730)
T18 construct: purchased Eurofins/DiscoverX KINOMEscan scanMAX
Method: as §1

[19] = target: T19, ULK2 (Homo sapiens, UniProt Q8IYT8)
T19 construct: DNA tag (qPCR barcode); purchased Eurofins/DiscoverX KINOMEscan scanMAX
T19 sequence (Q8IYT8 whole entry): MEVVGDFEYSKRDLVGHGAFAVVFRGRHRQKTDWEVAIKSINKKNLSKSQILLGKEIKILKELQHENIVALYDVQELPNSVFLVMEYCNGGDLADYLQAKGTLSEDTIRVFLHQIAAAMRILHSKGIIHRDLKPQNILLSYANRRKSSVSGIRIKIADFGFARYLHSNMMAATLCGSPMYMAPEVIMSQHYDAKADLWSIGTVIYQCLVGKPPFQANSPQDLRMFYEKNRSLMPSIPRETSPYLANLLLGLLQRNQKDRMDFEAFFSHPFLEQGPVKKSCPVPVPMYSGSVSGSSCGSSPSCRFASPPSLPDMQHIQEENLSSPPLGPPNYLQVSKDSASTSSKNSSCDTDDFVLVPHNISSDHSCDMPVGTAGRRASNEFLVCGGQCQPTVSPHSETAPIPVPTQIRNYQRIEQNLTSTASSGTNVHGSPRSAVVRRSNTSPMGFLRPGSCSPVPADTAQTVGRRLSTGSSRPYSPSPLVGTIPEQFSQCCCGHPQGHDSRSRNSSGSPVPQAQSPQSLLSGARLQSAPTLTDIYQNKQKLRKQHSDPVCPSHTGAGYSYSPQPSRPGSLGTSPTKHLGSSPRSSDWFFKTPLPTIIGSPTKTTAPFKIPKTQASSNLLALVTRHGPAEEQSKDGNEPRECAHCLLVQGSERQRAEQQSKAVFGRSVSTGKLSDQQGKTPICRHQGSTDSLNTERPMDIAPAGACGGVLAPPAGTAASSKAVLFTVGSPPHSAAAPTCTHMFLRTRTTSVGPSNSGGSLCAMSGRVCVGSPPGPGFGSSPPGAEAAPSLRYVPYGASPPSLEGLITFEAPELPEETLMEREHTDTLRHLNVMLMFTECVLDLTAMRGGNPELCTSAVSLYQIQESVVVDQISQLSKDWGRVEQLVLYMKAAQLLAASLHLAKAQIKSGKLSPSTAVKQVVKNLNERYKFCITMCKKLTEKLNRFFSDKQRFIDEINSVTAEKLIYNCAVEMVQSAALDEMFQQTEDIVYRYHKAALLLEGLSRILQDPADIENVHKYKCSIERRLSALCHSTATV
Method: as §1

[20] = target: T20, ABL1(Y253F)-phosphorylated (Homo sapiens, UniProt P00519, Y253F)
T20 construct: purchased Eurofins/DiscoverX KINOMEscan scanMAX
Method: as §1

[21] = target: T21, FAK (Homo sapiens, UniProt Q05397)
T21 construct: purchased Eurofins/DiscoverX KINOMEscan scanMAX
Method: as §1

[22] = target: T22, RIOK1 (Homo sapiens, UniProt Q9BRS2)
T22 construct: purchased Eurofins/DiscoverX KINOMEscan scanMAX
Method: as §1

[23] = target: T23, PLK1 (Homo sapiens, UniProt P53350)
T23 construct: purchased Eurofins/DiscoverX KINOMEscan scanMAX
Method: as §1

[24] = target: T24, ABL1(F317I)-nonphosphorylated (Homo sapiens, UniProt P00519, F317I)
T24 construct: purchased Eurofins/DiscoverX KINOMEscan scanMAX
Method: as §1

[25] = target: T25, PIK3CA (Homo sapiens, UniProt P42336)
T25 construct: purchased Eurofins/DiscoverX KINOMEscan scanMAX
Method: as §1

[26] = target: T26, ACVR2A (Homo sapiens, UniProt P27037)
T26 construct: purchased Eurofins/DiscoverX KINOMEscan scanMAX
Method: as §1

[27] = target: T27, PIK3CA(E542K) (Homo sapiens, UniProt P42336, E542K)
T27 construct: purchased Eurofins/DiscoverX KINOMEscan scanMAX
Method: as §1

[28] = target: T28, PDPK1 (Homo sapiens, UniProt O15530)
T28 construct: purchased Eurofins/DiscoverX KINOMEscan scanMAX
Method: as §1

[29] = target: T29, PAK4 (Homo sapiens, UniProt O96013)
T29 construct: purchased Eurofins/DiscoverX KINOMEscan scanMAX
Method: as §1

[30] = target: T30, SRPK2 (Homo sapiens, UniProt P78362)
T30 construct: purchased Eurofins/DiscoverX KINOMEscan scanMAX
Method: as §1

[31] = target: T31, CAMK4 (Homo sapiens, UniProt Q16566)
T31 construct: purchased Eurofins/DiscoverX KINOMEscan scanMAX
Method: as §1

[32] = target: T32, EPHB2 (Homo sapiens, UniProt P29323)
T32 construct: purchased Eurofins/DiscoverX KINOMEscan scanMAX
Method: as §1

[33] = target: T33, ANKK1 (Homo sapiens, UniProt Q8NFD2)
T33 construct: purchased Eurofins/DiscoverX KINOMEscan scanMAX
Method: as §1

[34] = target: T34, RPS6KA5(Kin.Dom.2-C-terminal) (Homo sapiens, UniProt O75582)
T34 construct: RPS6KA5(Kin.Dom.2-C-terminal); purchased Eurofins/DiscoverX KINOMEscan scanMAX
Method: as §1

[35] = target: T35, PRKCD (Homo sapiens, UniProt Q05655)
T35 construct: purchased Eurofins/DiscoverX KINOMEscan scanMAX
T35 sequence (Q05655 whole entry): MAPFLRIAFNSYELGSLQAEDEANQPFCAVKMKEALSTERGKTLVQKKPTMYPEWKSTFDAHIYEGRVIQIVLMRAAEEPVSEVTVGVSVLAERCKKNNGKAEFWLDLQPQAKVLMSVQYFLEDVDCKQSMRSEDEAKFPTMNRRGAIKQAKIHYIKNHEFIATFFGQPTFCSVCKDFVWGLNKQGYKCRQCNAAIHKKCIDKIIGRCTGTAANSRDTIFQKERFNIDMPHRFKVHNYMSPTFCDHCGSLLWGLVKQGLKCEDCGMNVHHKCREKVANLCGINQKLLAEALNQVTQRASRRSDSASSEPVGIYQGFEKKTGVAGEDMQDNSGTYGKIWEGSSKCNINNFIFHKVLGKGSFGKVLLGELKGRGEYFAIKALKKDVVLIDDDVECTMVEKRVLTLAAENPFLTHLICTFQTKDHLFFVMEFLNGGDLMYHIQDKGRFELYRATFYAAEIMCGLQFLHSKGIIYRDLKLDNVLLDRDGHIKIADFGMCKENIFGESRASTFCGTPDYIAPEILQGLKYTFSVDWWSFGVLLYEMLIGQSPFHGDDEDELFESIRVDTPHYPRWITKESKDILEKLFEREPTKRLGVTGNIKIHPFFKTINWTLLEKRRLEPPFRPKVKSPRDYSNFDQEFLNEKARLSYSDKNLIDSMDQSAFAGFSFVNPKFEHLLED
Method: as §1

[36] = target: T36, MET(Y1235D) (Homo sapiens, UniProt P08581, Y1235D)
T36 construct: purchased Eurofins/DiscoverX KINOMEscan scanMAX
Method: as §1

[37] = target: T37, JNK3 (Homo sapiens, UniProt P53779)
T37 construct: purchased Eurofins/DiscoverX KINOMEscan scanMAX
T37 sequence (P53779 whole entry): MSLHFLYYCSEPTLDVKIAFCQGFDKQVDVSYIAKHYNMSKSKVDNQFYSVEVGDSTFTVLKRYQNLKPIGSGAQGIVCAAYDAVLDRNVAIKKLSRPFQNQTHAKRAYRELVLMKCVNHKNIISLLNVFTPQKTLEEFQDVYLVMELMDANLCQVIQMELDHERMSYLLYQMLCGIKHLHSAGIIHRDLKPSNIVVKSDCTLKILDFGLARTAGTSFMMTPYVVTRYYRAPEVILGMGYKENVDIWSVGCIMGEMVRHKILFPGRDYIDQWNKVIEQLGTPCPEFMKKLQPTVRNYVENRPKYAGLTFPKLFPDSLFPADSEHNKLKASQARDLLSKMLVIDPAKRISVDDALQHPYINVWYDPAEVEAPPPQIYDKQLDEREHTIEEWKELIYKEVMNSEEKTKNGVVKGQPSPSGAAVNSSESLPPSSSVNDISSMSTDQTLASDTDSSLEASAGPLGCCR
Method: as §1

[38] = target: T38, EPHA7 (Homo sapiens, UniProt Q15375)
T38 construct: purchased Eurofins/DiscoverX KINOMEscan scanMAX
Method: as §1

[39] = target: T39, TAOK1 (Homo sapiens, UniProt Q7L7X3)
T39 construct: purchased Eurofins/DiscoverX KINOMEscan scanMAX
Method: as §1

[40] = target: T40, PIK3CA(Q546K) (Homo sapiens, UniProt P42336, Q546K)
T40 construct: purchased Eurofins/DiscoverX KINOMEscan scanMAX
Method: as §1

Compound: CN1CCN(C2CCC(n3cc(-c4ccc(Oc5ccccc5)cc4)c4c(N)ncnc43)CC2)CC1 (stereo not shown) [A-419259]
- % Control [1]: 2.1%
- % Control [2]: 97%
- % Control [3]: 69%
- % Control [4]: 63%
- % Control [5]: 77%
- % Control [6]: 84%
- % Control [7]: 83%
- % Control [8]: 91%
- % Control [9]: 100%
- % Control [10]: 96%
- % Control [11]: 80%
- % Control [12]: 16%
- % Control [13]: 1.1%
- % Control [14]: 12%
- % Control [15]: 100%
- % Control [16]: 100%
- % Control [17]: 28%
- % Control [18]: 8.3%
- % Control [19]: 47%
- % Control [20]: 0.35%
- % Control [21]: 72%
- % Control [22]: 77%
- % Control [23]: 100%
- % Control [24]: 2.5%
- % Control [25]: 100%
- % Control [26]: 100%
- % Control [27]: 85%
- % Control [28]: 100%
- % Control [29]: 93%
- % Control [30]: 97%
- % Control [31]: 100%
- % Control [32]: 100%
- % Control [33]: 73%
- % Control [34]: 96%
- % Control [35]: 89%
- % Control [36]: 100%
- % Control [37]: 99%
- % Control [38]: 100%
- % Control [39]: 100%
- % Control [40]: 100%
